Laboratory results from PubChem BioAssay AID256 (DTP/NCI, 2004).
“And” between values parts separate entries of the source, which are not always exact repeats. Equal values may be shown once. Toxic doses and inconclusive results are not listed. How the source made its calls: active means survival T/C of 150% or more; inactive means T/C below 125% in these data. Non-standard residues stand in square brackets, D forms with d. Residues, ends and D or L forms follow the SMILES beside them. *: point of attachment. Cbz = O=C(OCc1ccccc1)*; Abu = CC[CH](N)C(=O)O

Test system: CD2F1 mice, L1210 leukemia ip, survival T/C
Assay: NCI In Vivo Anticancer Drug Screen. Data for tumor model L1210 Leukemia (intraperitoneal) in CD2F1 (CDF1) mice
Conditions: higher = longer survival
Method in brief: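 In this screen, transplantable tumors were grown in mice given either the compound or its vehicle. Results were expressed as the treated measurement relative to the control measurement.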

[1] = endpoint: mean survival time, dose: 100.0 mg/kg/injection, schedule: Q01DX009 (ip), vehicle: saline with Tween-80
[2] = endpoint: mean survival time, dose: 200.0 mg/kg/injection, schedule: Q01DX009 (ip), vehicle: saline with Tween-80
[3] = endpoint: mean survival time, dose: 400.0 mg/kg/injection, schedule: Q01DX009 (ip), vehicle: saline with Tween-80
[4] = endpoint: mean survival time, dose: 100.0 mg/kg/injection, schedule: Q01DX001 (ip), vehicle: saline with Tween-80
[5] = endpoint: mean survival time, dose: 200.0 mg/kg/injection, schedule: Q01DX001 (ip), vehicle: saline with Tween-80
[6] = endpoint: mean survival time, dose: 400.0 mg/kg/injection, schedule: Q01DX001 (ip), vehicle: saline with Tween-80
[7] = endpoint: mean survival time, dose: 50.0 mg/kg/injection, schedule: Q01DX009 (ip), vehicle: saline with Tween-80
[8] = endpoint: mean survival time, dose: 100.0 mg/kg/injection, schedule: Q04DX003 (ip), vehicle: saline with Tween-80
[9] = endpoint: mean survival time, dose: 200.0 mg/kg/injection, schedule: Q04DX003 (ip), vehicle: saline with Tween-80
[10] = endpoint: mean survival time, dose: 400.0 mg/kg/injection, schedule: Q04DX003 (ip), vehicle: saline with Tween-80
[11] = endpoint: mean survival time, dose: 100.0 mg/kg/injection, schedule: Q01DX009 (ip), vehicle: saline
[12] = endpoint: mean survival time, dose: 200.0 mg/kg/injection, schedule: Q01DX009 (ip), vehicle: saline
[13] = endpoint: mean survival time, dose: 100.0 mg/kg/injection, schedule: Q04DX003 (ip), vehicle: saline
[14] = endpoint: mean survival time, dose: 200.0 mg/kg/injection, schedule: Q04DX003 (ip), vehicle: saline
[15] = endpoint: mean survival time, dose: 400.0 mg/kg/injection, schedule: Q04DX003 (ip), vehicle: saline

Measured: T/C

S=c1cc[nH]c2ccccc12
inactive: endpoint: mean survival time, dose: 12.5 mg/kg/injection, schedule: Q01DX009 (ip), vehicle: other 104 % of control | endpoint: mean survival time, dose: 25.0 mg/kg/injection, schedule: Q01DX009 (ip), vehicle: other 102 % of control | endpoint: mean survival time, dose: 50.0 mg/kg/injection, schedule: Q01DX009 (ip), vehicle: other 104 % of control

O=C(Nc1cc([N+](=O)[O-])ccc1F)N(CCO)C1CCCCC1
inactive: [1] 98 % of control | [2] 98 % of control | [3] 103 % of control

O=[N+]([O-])O.O=[N+]([O-])O.[NH-]C1CCCCC1[NH-].[Pt+2] (stereo not drawn)
inactive: endpoint: mean survival time, dose: 0.03 mg/kg/injection, schedule: Q01DX009 (ip), vehicle: other 120 % of control | endpoint: mean survival time, dose: 0.13 mg/kg/injection, schedule: Q04DX003 (ip), vehicle: other 120 % of control | endpoint: mean survival time, dose: 0.19 mg/kg/injection, schedule: Q04DX003 (ip), vehicle: saline 119 % of control | endpoint: mean survival time, dose: 0.25 mg/kg/injection, schedule: Q01DX009 (ip), vehicle: dextrose 98 % of control | endpoint: mean survival time, dose: 0.39 mg/kg/injection, schedule: Q01DX005 (ip), vehicle: saline 119 % of control | endpoint: mean survival time, dose: 0.39 mg/kg/injection, schedule: Q04DX003 (ip), vehicle: saline 120 % of control | endpoint: mean survival time, dose: 0.5 mg/kg/injection, schedule: Q01DX001 (ip), vehicle: other 113 % of control | endpoint: mean survival time, dose: 1.0 mg/kg/injection, schedule: Q01DX009 (ip), vehicle: dextrose 119 % of control | endpoint: mean survival time, dose: 1.0 mg/kg/injection, schedule: Q01DX009 (ip), vehicle: other 90 % of control | endpoint: mean survival time, dose: 3.12 mg/kg/injection, schedule: Q01DX005 (oral), vehicle: saline 97 % of control | endpoint: mean survival time, dose: 4.0 mg/kg/injection, schedule: Q04DX003 (ip), vehicle: other 95 % of control | endpoint: mean survival time, dose: 6.25 mg/kg/injection, schedule: Q01DX005 (oral), vehicle: saline 97 % of control | endpoint: mean survival time, dose: 12.5 mg/kg/injection, schedule: Q04DX003 (ip), vehicle: saline 100 % of control

O=NNc1cccnc1
inactive: endpoint: median survival time, dose: 6.25 mg/kg/injection, schedule: Q01DX009 (ip), vehicle: water 96 % of control | endpoint: median survival time, dose: 12.5 mg/kg/injection, schedule: Q01DX009 (ip), vehicle: water 99 % of control | endpoint: median survival time, dose: 25.0 mg/kg/injection, schedule: Q01DX009 (ip), vehicle: water 99 % of control

C=C1C[C@@H](O)C[C@@]2(C)C[C@@H]3OC(=O)C(=C)[C@@H]3C[C@H]12
inactive: [1] 104 % of control | [2] 111 % of control

Cc1cc(C2(c3ccc(O)c(C)c3)CCCCC2)ccc1O
inactive: [4] 97 % of control | endpoint: mean survival time, dose: 100.0 mg/kg/injection, schedule: Q01DX009 (ip), vehicle: Klucel (hydroxypropylcellulose) (HPC) 95 % of control | [5] 94 % of control | endpoint: mean survival time, dose: 200.0 mg/kg/injection, schedule: Q01DX009 (ip), vehicle: Klucel (hydroxypropylcellulose) (HPC) 94 % of control | [6] 96 % of control | endpoint: mean survival time, dose: 400.0 mg/kg/injection, schedule: Q01DX009 (ip), vehicle: Klucel (hydroxypropylcellulose) (HPC) 94 % of control

CN(C)c1ccc(/C=N/NC(=O)NN)cc1
inactive: endpoint: mean survival time, dose: 12.5 mg/kg/injection, schedule: Q01DX009 (ip), vehicle: saline with Tween-80 98 % of control | endpoint: mean survival time, dose: 12.5 mg/kg/injection, schedule: Q04DX003 (ip), vehicle: saline with Tween-80 98 % of control | endpoint: mean survival time, dose: 25.0 mg/kg/injection, schedule: Q01DX009 (ip), vehicle: saline with Tween-80 100 % of control | endpoint: mean survival time, dose: 25.0 mg/kg/injection, schedule: Q04DX003 (ip), vehicle: saline with Tween-80 98 % of control | [7] 98 % of control | endpoint: mean survival time, dose: 50.0 mg/kg/injection, schedule: Q04DX003 (ip), vehicle: saline with Tween-80 104 % of control

NCS(=O)(=O)O
inactive: [4] 98 % of control

CCOC(NCc1ccc(OC)c(OC)c1)OCC
inactive: endpoint: mean survival time, dose: 100.0 mg/kg/injection, schedule: Q01DX001 (ip), vehicle: saline 98 % of control | endpoint: mean survival time, dose: 200.0 mg/kg/injection, schedule: Q01DX001 (ip), vehicle: saline 98 % of control

Cc1c2ccncc2cc2c1[nH]c1ccccc12
inactive: endpoint: mean survival time, dose: 0.8 mg/kg/injection, schedule: Q03HX008 (iv), vehicle: saline 97 % of control | endpoint: mean survival time, dose: 1.6 mg/kg/injection, schedule: Q03HX008 (iv), vehicle: saline 97 % of control | endpoint: mean survival time, dose: 1.6 mg/kg/injection, schedule: Q06HX004 (iv), vehicle: saline 97 % of control | endpoint: mean survival time, dose: 3.2 mg/kg/injection, schedule: Q06HX004 (iv), vehicle: saline 93 % of control | endpoint: mean survival time, dose: 3.21 mg/kg/injection, schedule: Q#A X002 (iv), vehicle: saline 95 % of control | endpoint: mean survival time, dose: 6.3 mg/kg/injection, schedule: Q06HX004 (iv), vehicle: saline 97 % of control | endpoint: mean survival time, dose: 6.31 mg/kg/injection, schedule: Q#A X002 (iv), vehicle: saline 101 % of control | endpoint: mean survival time, dose: 12.5 mg/kg/injection, schedule: Q01DX001 (iv), vehicle: saline 95 % of control | endpoint: mean survival time, dose: 12.51 mg/kg/injection, schedule: Q#A X002 (iv), vehicle: saline 100 % of control | endpoint: mean survival time, dose: 25.0 mg/kg/injection, schedule: Q01DX001 (iv), vehicle: saline 98 % of control | endpoint: mean survival time, dose: 25.1 mg/kg/injection, schedule: Q#A X002 (iv), vehicle: saline 101 % of control

CC(Cc1ccccc1)NC1=NCCO1 (stereo not drawn)
inactive: [7] 96 % of control | [1] 104 % of control | [8] 104 % of control and 98 % of control and 89 % of control | [2] 93 % of control | [9] 91 % of control and 87 % of control | [10] 86 % of control

O=C(O)c1ccc2cc(O)ccc2c1
inactive: [11] 100 % of control | [12] 94 % of control

N#CCC(C#N)C1C=CCC1 (stereo not drawn)
inactive: endpoint: mean survival time, dose: 3.13 mg/kg/injection, schedule: Q04DX003 (ip), vehicle: saline 98 % of control | endpoint: mean survival time, dose: 6.25 mg/kg/injection, schedule: Q04DX003 (ip), vehicle: saline 101 % of control

CN(C)c1ccc(C=C(c2ccc(N)cc2)c2ccc(N)cc2)cc1
inactive: [1] 91 % of control | [2] 92 % of control | [3] 94 % of control

Oc1cc(O)c2c(c1)OC(c1ccc(O)c(O)c1)C(O)C2c1c(O)cc(O)c2c1OC(c1ccc(O)c(O)c1)C(O)C2 (stereo not drawn)
inactive: [13] 107 % of control | [14] 95 % of control | [15] 104 % of control

CCC[CH2][Sn](=[S])[CH2]CCC
inactive: endpoint: mean survival time, dose: 0.39 mg/kg/injection, schedule: Q01DX009 (ip), vehicle: other 102 % of control | endpoint: mean survival time, dose: 0.78 mg/kg/injection, schedule: Q01DX009 (ip), vehicle: other 100 % of control | endpoint: mean survival time, dose: 1.56 mg/kg/injection, schedule: Q01DX009 (ip), vehicle: other 107 % of control | endpoint: mean survival time, dose: 6.25 mg/kg/injection, schedule: Q04DX003 (ip), vehicle: other 103 % of control | endpoint: mean survival time, dose: 12.5 mg/kg/injection, schedule: Q04DX003 (ip), vehicle: other 103 % of control

Cc1c2c(cc3c1CCC1(C)C3CCC1C(C)CCC(C)C(C)C)CCCC2 (stereo not drawn)
inactive: [8] 94 % of control | [9] 94 % of control | [10] 89 % of control

CCC(NC(=O)OCc1ccccc1)C(=O)N1CCCC1C(=O)OC (stereo not drawn) (Cbz-[Abu]-Pro-OMe; configuration not given here)
inactive: [4] 103 % of control | [5] 104 % of control | [6] 103 % of control

CC(C)(CO)NC(=O)CCO
inactive: [11] 101 % of control | [13] 97 % of control | [12] 103 % of control | [14] 98 % of control | endpoint: mean survival time, dose: 400.0 mg/kg/injection, schedule: Q01DX009 (ip), vehicle: saline 104 % of control | [15] 101 % of control
